Data taken from ChEMBL document CHEMBL5120808, “6-Aryl-quinazolines as novel GABAB receptor positive allosteric modulators” (Bioorg Med Chem Lett, 2022).
Calls of active or inactive are those of the source. The calls are words filed in the database; no cut-off is given here.

Experiments:
GABA-B receptor = GABA-B receptor (Homo sapiens, UniProt O75899+Q9UBS5); test: Positive allosteric modulation of GABA-B receptor (unknown origin) assessed as stimulation of [35S]GTPgammaS binding by [35S]GTPgammaS binding assay; type: functional
Sequence of GABA-B receptor (Q9UBS5 whole entry): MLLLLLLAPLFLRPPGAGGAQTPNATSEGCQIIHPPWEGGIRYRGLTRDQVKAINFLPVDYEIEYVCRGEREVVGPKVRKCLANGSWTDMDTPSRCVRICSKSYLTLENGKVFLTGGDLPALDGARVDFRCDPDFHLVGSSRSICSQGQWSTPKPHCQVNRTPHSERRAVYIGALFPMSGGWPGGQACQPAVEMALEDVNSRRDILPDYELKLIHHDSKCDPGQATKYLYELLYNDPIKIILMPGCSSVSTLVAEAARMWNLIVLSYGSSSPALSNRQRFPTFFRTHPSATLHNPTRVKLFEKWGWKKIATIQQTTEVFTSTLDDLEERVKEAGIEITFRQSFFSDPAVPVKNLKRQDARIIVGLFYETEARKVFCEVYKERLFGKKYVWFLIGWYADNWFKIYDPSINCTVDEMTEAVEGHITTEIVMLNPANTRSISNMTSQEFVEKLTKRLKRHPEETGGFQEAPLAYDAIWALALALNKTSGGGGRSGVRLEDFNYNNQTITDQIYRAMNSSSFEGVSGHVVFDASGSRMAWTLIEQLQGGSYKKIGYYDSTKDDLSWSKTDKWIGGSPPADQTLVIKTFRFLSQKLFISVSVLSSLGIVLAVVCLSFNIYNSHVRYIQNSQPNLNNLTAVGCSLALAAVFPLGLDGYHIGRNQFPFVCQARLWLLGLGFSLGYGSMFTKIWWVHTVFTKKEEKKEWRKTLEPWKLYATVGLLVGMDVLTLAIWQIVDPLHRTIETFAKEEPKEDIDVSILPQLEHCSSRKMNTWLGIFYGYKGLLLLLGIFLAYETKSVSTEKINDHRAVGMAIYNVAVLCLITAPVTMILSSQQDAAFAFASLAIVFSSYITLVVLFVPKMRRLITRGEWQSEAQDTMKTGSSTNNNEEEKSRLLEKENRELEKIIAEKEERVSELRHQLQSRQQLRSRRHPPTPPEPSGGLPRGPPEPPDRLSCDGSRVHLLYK
Sequence of GABA-B receptor (O75899 whole entry): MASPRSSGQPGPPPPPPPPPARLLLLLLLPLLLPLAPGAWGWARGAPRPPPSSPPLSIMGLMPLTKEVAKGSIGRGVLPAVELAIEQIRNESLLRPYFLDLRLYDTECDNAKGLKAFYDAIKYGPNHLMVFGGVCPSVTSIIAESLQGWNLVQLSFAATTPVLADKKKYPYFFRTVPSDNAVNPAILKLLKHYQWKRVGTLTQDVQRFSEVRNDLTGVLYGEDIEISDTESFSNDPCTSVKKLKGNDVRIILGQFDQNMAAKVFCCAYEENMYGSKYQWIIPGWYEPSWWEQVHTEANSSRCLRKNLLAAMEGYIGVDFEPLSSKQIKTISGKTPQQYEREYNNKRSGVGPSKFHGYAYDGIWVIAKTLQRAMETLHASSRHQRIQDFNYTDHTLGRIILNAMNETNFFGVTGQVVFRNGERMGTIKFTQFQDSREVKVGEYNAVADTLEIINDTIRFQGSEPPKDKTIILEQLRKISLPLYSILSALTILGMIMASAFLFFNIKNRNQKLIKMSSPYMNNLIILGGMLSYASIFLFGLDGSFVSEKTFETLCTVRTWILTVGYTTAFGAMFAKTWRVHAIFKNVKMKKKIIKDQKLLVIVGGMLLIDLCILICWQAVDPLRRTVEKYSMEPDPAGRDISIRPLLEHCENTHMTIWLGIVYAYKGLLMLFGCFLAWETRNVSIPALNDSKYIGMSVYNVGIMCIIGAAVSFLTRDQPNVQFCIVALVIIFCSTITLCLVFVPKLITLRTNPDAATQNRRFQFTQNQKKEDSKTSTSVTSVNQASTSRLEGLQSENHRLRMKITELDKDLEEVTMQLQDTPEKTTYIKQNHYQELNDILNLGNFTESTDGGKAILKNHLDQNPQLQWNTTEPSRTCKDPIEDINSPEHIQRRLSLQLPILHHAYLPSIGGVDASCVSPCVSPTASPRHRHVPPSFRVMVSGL

[1] = Metabolic stability in mouse assessed as parent compound remaining; type: ADME
[2] = Metabolic stability in rat assessed as parent compound remaining; type: ADME
[3] = Metabolic stability in human assessed as parent compound remaining; type: ADME
Mus musculus [4] = test: Potentiation of baclofen induced skeletal muscle relaxation in po dosed NMRI mouse assessed as effective dose by Litchfield-Wilcoxon method; type: functional
Mus musculus [5] = test: Potentiation of baclofen induced skeletal muscle relaxation in NMRI mouse at 3 to 30 mg/kg, po by traction test; type: functional, organism-based; conditions: dose 3-30 mg/kg
Mus musculus [6] = test: Potentiation of baclofen induced loss of righting reflex in po dosed NMRI mouse assessed as effective dose by Litchfield-Wilcoxon method; type: functional
[7] = AUC (0 to 24 hrs) in NMRI mouse plasma at 10 mg/kg, po measured up to 24 hrs; type: ADME, organism-based; set-up: time < 24 hrs, dose 10 mg/kg, route po
[8] = Cmax in NMRI mouse plasma at 10 mg/kg, po measured up to 24 hrs; type: ADME, organism-based; set-up: dose 10 mg/kg, time < 24 hrs, route po
[9] = Tmax in NMRI mouse plasma at 10 mg/kg, po measured up to 24 hrs; type: ADME, organism-based
[10] = AUC (0 to 24 hrs) in NMRI mouse brain at 10 mg/kg, po measured up to 24 hrs; type: ADME, organism-based; set-up: time < 24 hrs, dose 10 mg/kg, route po
[11] = Cmax in NMRI mouse brain at 10 mg/kg, po measured up to 24 hrs; type: ADME, organism-based; set-up: time < 24 hrs, dose 10 mg/kg, route po
[12] = Tmax in NMRI mouse brain at 10 mg/kg, po measured up to 24 hrs; type: ADME, organism-based
[13] = Half life in NMRI mouse brain at 10 mg/kg, po measured up to 24 hrs; type: ADME, organism-based

Compound | EC50 (GABA-B receptor) | Stability [1] | Stability [2] | Stability [3] | other results
Cc1nc(N[C@@H]2C[C@H]3CC[C@@H]2C3)c2cc(-c3cccc(C(F)(F)F)c3)ccc2n1 | 142 nM | 41% | 41% | 75% | 
Cc1ncc(-c2ccc(C(F)(F)F)cc2)c(N[C@@H]2C[C@H]3CC[C@@H]2C3)n1 |  | 42% | 24% | 65% | 
Cc1nc(N[C@@H]2C[C@H]3CC[C@@H]2C3)c2cc(-c3ccc(Cl)cc3)ccc2n1 | 444 nM | 39% | 49% | 47% | ED50 (Mus musculus [4]): 12.7 mg/kg
Cc1nc(N[C@@H]2C[C@H]3CC[C@@H]2C3)c2cc(-c3ccc(Cl)c(Cl)c3)ccc2n1 | 419 nM | 74% | 63% | 56% | 
Cc1nc(N[C@@H]2C[C@H]3CC[C@@H]2C3)c2cc(-c3ccc(C(F)(F)F)cc3)ccc2n1 | 771 nM | 66% | 77% | 66% | 
Clc1nc(N[C@@H]2C[C@H]3CC[C@@H]2C3)c2cc(-c3ccc(Cl)c(Cl)c3)ccc2n1 | 341 nM | 67% | 59% | 69% | 
Clc1ccc(-c2ccc3nc(Cl)nc(N[C@@H]4C[C@H]5CC[C@@H]4C5)c3c2)cc1 | 208 nM | 40% | 85% | 46% | ED50 (Mus musculus [4]): 25.6 mg/kg

Second part, led by results:

EC50 (GABA-B receptor) | Stability [1] | Stability [2] | Stability [3] | Compound | other results
90 nM | 63% | 67% | 58% | FC(F)(F)c1cccc(-c2ccc3nc(Cl)nc(N[C@@H]4C[C@H]5CC[C@@H]4C5)c3c2)c1 | 
294 nM | 53% | 36% | 47% | Fc1ccc(-c2ccc3nc(Cl)nc(N[C@@H]4C[C@H]5CC[C@@H]4C5)c3c2)cc1 | 
 | 62% | 76% | 85% | Clc1cc(Cl)cc(-c2ccc3nc(Cl)nc(N[C@@H]4C[C@H]5CC[C@@H]4C5)c3c2)c1 | 
496 nM | 23% | 31% | 57% | Cc1nc(N[C@@H]2C[C@H]3CC[C@@H]2C3)c2cc(-c3ccccc3Cl)ccc2n1 | 
637 nM | 95% | 84% | 73% | FC(F)(F)c1ccc(-c2ccc3nc(Cl)nc(N[C@@H]4C[C@H]5CC[C@@H]4C5)c3c2)cc1 | Activity (Mus musculus [5]): Active; ED50 (Mus musculus [4]): 8.1 mg/kg; ED50 (Mus musculus [6]): 2.9 mg/kg; AUC(0-t) at 24 h [7]: 4660 ng·h/mL; Cmax [8]: 586 ng/mL; Tmax [9]: 1 h; AUC(0-t) at 24 h [10]: 852 ng·h/mL; Cmax [11]: 100 ng/mL; Tmax [12]: 2 h; half-life [13]: 8.94 h
199 nM | 27% | 23% | 50% | Cc1nc(N[C@@H]2C[C@H]3CC[C@@H]2C3)c2cc(-c3cccc(Cl)c3)ccc2n1 | 
97 nM | 44% | 37% | 62% | Cc1nc(N[C@@H]2C[C@H]3CC[C@@H]2C3)c2cc(-c3cc(Cl)cc(Cl)c3)ccc2n1 | 
